# Reference: patent publication US9169224B2, “Piperazinyl and piperidinyl ureas as modulators of fatty acid amide hydrolase” (Janssen Pharmaceutica NV, priority 2004, dated 2015)
# Where a name gives a salt, the structure may show the parent alone.
# Biological target: FAAH (Homo sapiens (Human), UniProt O00519)
# Assay: Assay Method 1: FAAH assay, T84 cell homogenate, 3H-anandamide hydrolysis
# Assay type: biochemical
# Settings: 3H-AEA tracer 200 nM, 1 h at rt
# Description: T84 frozen pellets (contents of 1-4×15 cm culture dishes) were homogenized in 300 mL of FAAH assay buffer (125 mM Tris, 1 mM EDTA, 0.2% glycerol, 0.02% Triton X-100, 0.4 mM Hepes, pH 9). The assay mixture was prepared from 50 μL of the cell homogenate, 10 μL of the test compound, and 40 μL of anandamide [1-3H-ethanolamine] (^3H-AEA; Perkin-Elmer, 10.3 Ci/mmol), which was added last, for a final tracer concentration of 200 nM. The reaction mixture was incubated at rt for 1 hour (h). During the incubation, 96-well Multiscreen filter plates (catalog number MAFCNOB50; Millipore, Bedford, Mass., USA) were loaded with 25 μL of activated charcoal (Multiscreen column loader, catalog number MACL09625, Millipore) and washed once with 100 μL of MeOH. Also during the incubation, 96-well DYNEX MicroLite plates (catalog number NL510410) were loaded with 100 μL of MicroScint40 (catalog number 6013641, Packard Bioscience, Meriden, Conn., USA). After the 1 h incubation, 60 μL of the reaction mixture were transferred to the charcoal plates, which were then assembled on top of the DYNEX plates using Centrifuge Alignment Frames (catalog number MACF09604, Millipore). The unbound, labeled ethanolamine was centrifuged through to the bottom plate (5 min at 2000 rpm), which was preloaded with the scintillant, as described above. The plates were sealed and left at rt for 1 h before counting on a Hewlett Packard TopCount.
# Chain of FAAH (O00519 whole entry): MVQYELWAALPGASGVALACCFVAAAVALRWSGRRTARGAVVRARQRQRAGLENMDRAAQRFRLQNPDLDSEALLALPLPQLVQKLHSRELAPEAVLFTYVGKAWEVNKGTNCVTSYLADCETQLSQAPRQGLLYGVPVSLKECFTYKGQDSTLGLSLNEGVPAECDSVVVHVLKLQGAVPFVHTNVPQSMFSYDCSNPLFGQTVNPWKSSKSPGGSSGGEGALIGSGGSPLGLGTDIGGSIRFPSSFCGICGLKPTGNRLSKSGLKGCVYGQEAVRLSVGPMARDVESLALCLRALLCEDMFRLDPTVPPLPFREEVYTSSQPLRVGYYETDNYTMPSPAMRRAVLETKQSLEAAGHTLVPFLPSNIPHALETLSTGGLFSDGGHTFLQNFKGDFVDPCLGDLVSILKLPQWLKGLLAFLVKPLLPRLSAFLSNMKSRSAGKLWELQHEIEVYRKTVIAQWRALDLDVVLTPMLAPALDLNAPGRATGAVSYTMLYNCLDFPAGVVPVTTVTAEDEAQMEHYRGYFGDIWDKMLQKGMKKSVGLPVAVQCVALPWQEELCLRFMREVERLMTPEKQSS
row,Structure (SMILES),IC50 [µM]
1,"O=C(Nc1ccccc1Cl)N1CCN(Cc2cnc3ccccc3c2)CC1 [Example 99, 4-Quinolin-3-ylmethyl-piperazine-1-carboxylic acid (2-chloro-phenyl)-amide]",1.6
2,"COc1ccc(CN2CCN(C(=O)Nc3ccccc3)CC2)cc1OC [Example 44, 4-(3,4-Dimethoxy-benzyl)-piperazine-1-carboxylic acid phenylamide]",4
3,"O=C(Nc1ccccc1)N1CCN(Cc2ccccc2Br)CC1 [Example 84, 4-(2-Bromo-benzyl)-piperazine-1-carboxylic acid phenylamide]",2.5
4,"O=C(Nc1ccccc1)N1CCN(Cc2cccc(OCCCN3CCCCC3)c2)CC1 [Example 128, 4-[3-(3-Piperidin-1-yl-propoxy)-benzyl]-piperazine-1-carboxylic acid phenylamide]",2
5,"O=C(Nc1ccccc1)N1CCN(Cc2ccc3[nH]ccc3c2)CC1 [Example 43, 4-(1H-Indol-5-ylmethyl)-piperazine-1-carboxylic acid phenylamide]",4
6,"O=C(Nc1ccccc1)N1CCN(Cc2cccc(OCCN3CCCCC3)c2)CC1 [Example 126, 4-[3-(2-Piperidin-1-yl-ethoxy)-benzyl]-piperazine-1-carboxylic acid phenylamide]",2
7,"O=C(Nc1ccccc1)N1CCN(Cc2ccc(Oc3ccccc3)cc2)CC1 [Example 74, 4-(4-Phenoxy-benzyl)-piperazine-1-carboxylic acid phenylamide]",2
8,"CN(C)CCCOc1cccc(CN2CCN(C(=O)Nc3ccccc3)CC2)c1 [Example 127, 4-[3-(3-Dimethylamino-propoxy)-benzyl]-piperazine-1-carboxylic acid phenylamide]",2
9,"O=C(Nc1ccccc1Cl)N1CCC(Cc2ccccc2)CC1 [Example 115, 4-Benzyl-piperidine-1-carboxylic acid (2-chloro-phenyl)-amide]",4
10,"Cc1cccc(CN2CCN(C(=O)Nc3ccccc3)CC2)c1 [Example 42, 4-(3-Methyl-benzyl)-piperazine-1-carboxylic acid phenylamide]",2
11,"COc1cccc(CN2CCN(C(=O)Nc3ccccc3)CC2)c1 [Example 39, 4-(3-Methoxy-benzyl)-piperazine-1-carboxylic acid phenylamide]",1.1
12,"O=C(Nc1ccccc1)N1CCN(Cc2ccccc2OCc2ccccc2)CC1 [Example K, 4-(2-Benzyloxy-benzyl)-piperazine-1-carboxylic acid phenylamide, reference compound]",> 10
13,"O=C(Nc1ccccc1)N1CCN(Cc2ccncc2)CC1 [Example 45, 4-Pyridin-4-ylmethyl-piperazine-1-carboxylic acid phenylamide]",> 10
14,"O=C(Nc1ccccc1)N1CCN(Cc2cccc3c2OCO3)CC1 [Example 51, 4-Benzo[1,3]dioxol-4-ylmethyl-piperazine-1-carboxylic acid phenylamide]",6
15,"O=C(Nc1ccccc1)N1CCN(Cc2cccc(Br)n2)CC1 [Example 71, 4-(6-Bromo-pyridin-2-ylmethyl)-piperazine-1-carboxylic acid phenylamide]",6
16,"CC(C)Oc1ccc(CN2CCN(C(=O)Nc3ccccc3)CC2)cc1 [Example 48, 4-(4-Isopropoxy-benzyl)-piperazine-1-carboxylic acid phenylamide]",3.5
17,"Cc1ccccc1NC(=O)N1CCN(Cc2cnc3ccccc3c2)CC1 [Example 103, 4-Quinolin-3-ylmethyl-piperazine-1-carboxylic acid o-tolylamide]",6
18,"CCOc1ccc(CN2CCN(C(=O)Nc3ccccc3)CC2)cc1 [Example 129, 4-(4-Ethoxy-benzyl)-piperazine-1-carboxylic acid phenylamide]",2
19,"O=C(Nc1ccccc1)N1CCN(Cc2ccc(OC3CCCCC3)cc2)CC1 [Example 119, 4-(4-Cyclohexyloxy-benzyl)-piperazine-1-carboxylic acid phenylamide]",1
20,"O=C(Nc1ccccc1)N1CCN(Cc2cccnc2)CC1 [Example 47, 4-Pyridin-3-ylmethyl-piperazine-1-carboxylic acid phenylamide]",> 10

# Second part, the compound after the results:
row,IC50 [µM],Structure (SMILES)
1,0.059,"O=C(Nc1ccccc1)N1CCN(Cc2cccc(OS(=O)(=O)c3ccccc3)c2)CC1 [Example 138, Benzenesulfonic acid 3-(4-phenylcarbamoyl-piperazin-1-ylmethyl)-phenyl ester]"
2,0.2,"O=C(Nc1cccc(Cl)c1)N1CCN(Cc2cnc3ccccc3c2)CC1 [Example 100, 4-Quinolin-3-ylmethyl-piperazine-1-carboxylic acid (3-chloro-phenyl)-amide]"
3,0.46,"O=C(Nc1ccccc1Cl)N1CCN(Cc2ccc(Br)c(Br)c2)CC1 [Example 93, 4-(3,4-Dibromo-benzyl)-piperazine-1-carboxylic acid (2-chloro-phenyl)-amide]"
4,0.028,"O=C(Nc1ccccc1)N1CCN(Cc2ccc3cccc(Cl)c3n2)CC1 [Example 55, 4-(8-Chloro-quinolin-2-ylmethyl)-piperazine-1-carboxylic acid phenylamide]"
5,0.35,"Cn1ccc2ccc(CN3CCN(C(=O)Nc4ccccc4)CC3)cc21 [Example 76, 4-(1-Methyl-1H-indol-6-ylmethyl)-piperazine-1-carboxylic acid phenylamide]"
6,0.27,"O=C(Nc1ccccc1)N1CCC(Cc2ccccc2)CC1 [Example H, 4-Benzyl-piperidine-1-carboxylic acid phenylamide, reference compound]"
7,0.08,"O=C(Nc1ccccc1)N1CCN(Cc2ccc(Cl)c(C(F)(F)F)c2)CC1 [Example 82, 4-(4-Chloro-3-trifluoromethyl-benzyl)-piperazine-1-carboxylic acid phenylamide]"
8,0.13,"COc1ccccc1NC(=O)N1CCN(Cc2ccc(Br)c(Br)c2)CC1 [Example 91, 4-(3,4-Dibromo-benzyl)-piperazine-1-carboxylic acid (2-methoxy-phenyl)-amide]"
9,0.27,"COc1ccc(NC(=O)N2CCN(Cc3cnc4ccccc4c3)CC2)cc1 [Example 108, 4-Quinolin-3-ylmethyl-piperazine-1-carboxylic acid (4-methoxy-phenyl)-amide]"
10,0.63,"Cc1ccc(CN2CCN(C(=O)Nc3ccccc3)CC2)cc1C [Example D, 4-(3,4-Dimethyl-benzyl)-piperazine-1-carboxylic acid phenylamide, reference compound]"
11,0.022,"O=C(Nc1ccccc1F)N1CCN(Cc2ccc(Br)c(Br)c2)CC1 [Example 89, 4-(3,4-Dibromo-benzyl)-piperazine-1-carboxylic acid (2-fluoro-phenyl)-amide]"
12,0.05,"COC(=O)c1ccc(Oc2cccc(CN3CCN(C(=O)Nc4ccccc4)CC3)c2)cc1 [Example 133, 4-[3-(4-Phenylcarbamoyl-piperazin-1-ylmethyl)-phenoxy]-benzoic acid methyl ester]"
13,0.47,"Cc1ccc(NC(=O)N2CCN(Cc3ccc(Br)c(Br)c3)CC2)cc1 [Example 94, 4-(3,4-Dibromo-benzyl)-piperazine-1-carboxylic acid p-tolylamide]"
14,0.41,"O=C(Nc1ccccc1)N1CCN(Cc2cccc(-c3ccccc3)c2)CC1 [Example 70, 4-Biphenyl-3-ylmethyl-piperazine-1-carboxylic acid phenylamide]"
15,0.36,"O=C(Nc1ccccn1)N1CCN(Cc2ccc(Br)c(Br)c2)CC1 [Example 117, 4-(3,4-Dibromo-benzyl)-piperazine-1-carboxylic acid pyridin-2-ylamide]"
16,0.2,"COc1cccc(NC(=O)N2CCN(Cc3cnc4ccccc4c3)CC2)c1 [Example 110, 4-Quinolin-3-ylmethyl-piperazine-1-carboxylic acid (3-methoxy-phenyl)-amide]"
17,0.28,"O=C(Nc1ccccc1)N1CCN(Cc2cccc(Br)c2)CC1 [Example C, 4-(3-Bromo-benzyl)-piperazine-1-carboxylic acid phenylamide, reference compound]"
18,0.36,"O=C(Nc1ccc(Cl)cc1)N1CCN(Cc2cnc3ccccc3c2)CC1 [Example 101, 4-Quinolin-3-ylmethyl-piperazine-1-carboxylic acid (4-chloro-phenyl)-amide]"
19,0.23,"Cn1ccc2cc(CN3CCN(C(=O)Nc4ccccc4)CC3)ccc21 [Example 53, 4-(1-Methyl-1H-indol-5-ylmethyl)-piperazine-1-carboxylic acid phenylamide]"
20,0.17,"O=C(Nc1ccccc1)N1CCN(Cc2ccc3cc(Cl)ccc3n2)CC1 [Example 54, 4-(6-Chloro-quinolin-2-ylmethyl)-piperazine-1-carboxylic acid phenylamide]"
21,0.47,"COc1ccc(CN2CCN(C(=O)Nc3ccccc3)CC2)cc1 [Example 36, 4-(4-Methoxy-benzyl)-piperazine-1-carboxylic acid phenylamide]"

# Same assay, conditions: 3H-AEA tracer 200 nM, 1 h at rt, dihydrochloride
row,Structure (SMILES),IC50 [µM]
1,"O=C(Nc1ccccc1)N1CCN(Cc2ccc3ccccc3n2)CC1 [Example 163, 4-Quinolin-2-ylmethyl-piperazine-1-carboxylic acid phenylamide dihydrochloride]",0.023
